This note sets out measurements from US9023838B2, “Crystalline form I rosuvastatin zinc salt” (Egis Gyogyszergyar Nyilvanosan Muekoedoe, priority 2009, dated 2015).

A short description of series [1]: Hygroscopicity (water absorbed). The format is physicochemical.
Series [2] in a line: Chemical stability on storage at 25° C., 60% relative humidity (impurity concentrations). The format is physicochemical. The following applies: for Lactone impurity / M-2 impurity / Total impurities / Total impurities, number of peaks / Change of concentration of impurity M-2 relative to the initial concentration: 25° C.; for Lactone impurity / M-2 impurity / Total impurities / Total impurities, number of peaks: 60% RH; for Increase in the concentration of rosuvastatin lactone: after one month storage; for Change of concentration of impurity M-2 relative to the initial concentration: one month, 60% relative humidity. Here is the method:
Chemical stability of amorphous and crystalline Form I rosuvastatin zinc salts (2:1) has been determined by challenging said substances at the storage condition of 25° C., 60% relative humidity.

Setting [3] is: listed as amorphous rosuvastatin zinc salt (2:1).

Structures are written as SMILES. Structures can show the parent of a compound that is named as a salt.

On to `CC(C)c1nc(N(C)S(C)(=O)=O)nc(-c2ccc(F)cc2)c1/C=C/[C@@H](O)C[C@@H](O)CC(=O)O` [Amorphous, 7-[4-(4-fluorophenyl)-6-isopropyl-2-(methanesulfonyl-methyl-amino)-pyrimidin-S-yl]-(3R,5S)-dihydroxy-hept-6-enoic acid zinc salt (2:1), reference compound], for which, in series [1] (setting [3]), the “Amount of water absorbed” value turned out to be 1.88 % by weight. Also, in series [2] (1 month), the Lactone impurity came to 0.51%; the M-2 impurity came to 0.10%; the Total impurities turned out to be 0.77%; the “Total impurities, number of peaks” value was “(6 peaks)”. Moreover, in series [2] (Initial), the Lactone impurity came to 0.10%; the M-2 impurity was found to be 0.03%; the Total impurities is recorded as 0.38%; the “Total impurities, number of peaks” value was “(7 peaks)”. In addition, the “Increase in the concentration of rosuvastatin lactone” value in series [2] (setting [3]) is “five-fold increase”. In addition, in series [2] (listed as amorphous form of rosuvastatin zinc salt), the “Change of concentration of impurity M-2 relative to the initial concentration” value is recorded as “three-fold of the initial concentration”.

In the case of `CC(C)c1nc(N(C)S(C)(=O)=O)nc(-c2ccc(F)cc2)c1/C=C/[C@@H](O)C[C@@H](O)CC(=O)O` [Form I, 7-[4-(4-fluorophenyl)-6-isopropyl-2-(methanesulfonyl-methyl-amino)-pyrimidin-5-yl]-(3R,5S)-dihydroxy-hept-6-enoic acid zinc salt (2:1)], the “Amount of water absorbed” value in series [1] (listed as crystalline Form I rosuvastatin zinc salt (2:1)) was 0.24 % by weight. Also, in series [2] (1 month), the Lactone impurity stood at 0.32%; the M-2 impurity is recorded as 0.08%; the Total impurities is 0.49%; the “Total impurities, number of peaks” value was “(3 peaks)”. In series [2] (Initial), the Lactone impurity stood at 0.13%; the M-2 impurity is on record as 0.07%; the Total impurities came to 0.28%; the “Total impurities, number of peaks” value is reported as “(3 peaks)”. For the same compound, the “Increase in the concentration of rosuvastatin lactone” value in series [2] (listed as crystalline Form I of rosuvastatin zinc salt (2:1)) is listed as “much less prone to form lactone of rosuvastatin”. In series [2] (during storage), the “Total amount of the impurities and number of the individual impurities during storage, compared with the amorphous form” value is reported as “significantly lower”. For the same compound, the “Change of concentration of impurity M-2 relative to the initial concentration” value in series [2] (listed as crystalline Form I substance) was “practically unchanged”.
